Data taken from paper PMC9230573 (Frontiers in Pharmacology, 2022).
pIC50: −log10 of the molar value. Where a SMILES comes first, the peptide text is derived from it. Bridges are numbered along the chain shown (N, C = ends).

How the values were obtained:
[1] = biological target: human CaV2.2 (α1B, β3, α2δ1) (Homo sapiens, UniProt Q00975); test: cell-based
rat α3β2 nAChR = rat α3β2 nAChR (Rattus norvegicus, UniProt P04757+P12390); test: cell-based
Sequence of rat α3β2 nAChR (P04757 26-499 limits assumed): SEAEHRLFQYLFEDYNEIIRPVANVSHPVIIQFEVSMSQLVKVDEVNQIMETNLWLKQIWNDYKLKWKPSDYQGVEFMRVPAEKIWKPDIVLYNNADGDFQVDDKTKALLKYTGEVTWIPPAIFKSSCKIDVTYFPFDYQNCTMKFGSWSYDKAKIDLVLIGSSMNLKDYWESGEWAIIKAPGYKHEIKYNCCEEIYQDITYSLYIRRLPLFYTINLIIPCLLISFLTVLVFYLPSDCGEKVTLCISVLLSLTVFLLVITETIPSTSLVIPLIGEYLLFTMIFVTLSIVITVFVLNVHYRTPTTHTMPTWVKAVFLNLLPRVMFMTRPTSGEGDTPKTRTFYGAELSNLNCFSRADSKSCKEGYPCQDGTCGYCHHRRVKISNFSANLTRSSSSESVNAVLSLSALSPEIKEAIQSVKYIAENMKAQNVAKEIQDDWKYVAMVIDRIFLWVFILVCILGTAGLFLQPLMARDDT
Sequence of rat α3β2 nAChR (P12390 25-500 limits assumed): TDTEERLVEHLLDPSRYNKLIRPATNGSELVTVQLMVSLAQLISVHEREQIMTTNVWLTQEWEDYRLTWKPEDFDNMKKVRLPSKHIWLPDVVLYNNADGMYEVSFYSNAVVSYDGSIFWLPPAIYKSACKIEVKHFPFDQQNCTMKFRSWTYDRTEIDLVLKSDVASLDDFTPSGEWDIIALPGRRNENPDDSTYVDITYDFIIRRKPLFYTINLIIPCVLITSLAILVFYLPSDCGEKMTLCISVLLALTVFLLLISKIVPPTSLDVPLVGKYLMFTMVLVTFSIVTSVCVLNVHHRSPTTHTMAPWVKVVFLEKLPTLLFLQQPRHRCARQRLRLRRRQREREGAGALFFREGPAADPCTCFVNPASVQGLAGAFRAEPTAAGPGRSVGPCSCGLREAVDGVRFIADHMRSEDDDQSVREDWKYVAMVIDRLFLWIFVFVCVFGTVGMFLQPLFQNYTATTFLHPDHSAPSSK

Sequence of human CaV2.2 (α1B, β3, α2δ1) (Q00975 whole entry, looked up): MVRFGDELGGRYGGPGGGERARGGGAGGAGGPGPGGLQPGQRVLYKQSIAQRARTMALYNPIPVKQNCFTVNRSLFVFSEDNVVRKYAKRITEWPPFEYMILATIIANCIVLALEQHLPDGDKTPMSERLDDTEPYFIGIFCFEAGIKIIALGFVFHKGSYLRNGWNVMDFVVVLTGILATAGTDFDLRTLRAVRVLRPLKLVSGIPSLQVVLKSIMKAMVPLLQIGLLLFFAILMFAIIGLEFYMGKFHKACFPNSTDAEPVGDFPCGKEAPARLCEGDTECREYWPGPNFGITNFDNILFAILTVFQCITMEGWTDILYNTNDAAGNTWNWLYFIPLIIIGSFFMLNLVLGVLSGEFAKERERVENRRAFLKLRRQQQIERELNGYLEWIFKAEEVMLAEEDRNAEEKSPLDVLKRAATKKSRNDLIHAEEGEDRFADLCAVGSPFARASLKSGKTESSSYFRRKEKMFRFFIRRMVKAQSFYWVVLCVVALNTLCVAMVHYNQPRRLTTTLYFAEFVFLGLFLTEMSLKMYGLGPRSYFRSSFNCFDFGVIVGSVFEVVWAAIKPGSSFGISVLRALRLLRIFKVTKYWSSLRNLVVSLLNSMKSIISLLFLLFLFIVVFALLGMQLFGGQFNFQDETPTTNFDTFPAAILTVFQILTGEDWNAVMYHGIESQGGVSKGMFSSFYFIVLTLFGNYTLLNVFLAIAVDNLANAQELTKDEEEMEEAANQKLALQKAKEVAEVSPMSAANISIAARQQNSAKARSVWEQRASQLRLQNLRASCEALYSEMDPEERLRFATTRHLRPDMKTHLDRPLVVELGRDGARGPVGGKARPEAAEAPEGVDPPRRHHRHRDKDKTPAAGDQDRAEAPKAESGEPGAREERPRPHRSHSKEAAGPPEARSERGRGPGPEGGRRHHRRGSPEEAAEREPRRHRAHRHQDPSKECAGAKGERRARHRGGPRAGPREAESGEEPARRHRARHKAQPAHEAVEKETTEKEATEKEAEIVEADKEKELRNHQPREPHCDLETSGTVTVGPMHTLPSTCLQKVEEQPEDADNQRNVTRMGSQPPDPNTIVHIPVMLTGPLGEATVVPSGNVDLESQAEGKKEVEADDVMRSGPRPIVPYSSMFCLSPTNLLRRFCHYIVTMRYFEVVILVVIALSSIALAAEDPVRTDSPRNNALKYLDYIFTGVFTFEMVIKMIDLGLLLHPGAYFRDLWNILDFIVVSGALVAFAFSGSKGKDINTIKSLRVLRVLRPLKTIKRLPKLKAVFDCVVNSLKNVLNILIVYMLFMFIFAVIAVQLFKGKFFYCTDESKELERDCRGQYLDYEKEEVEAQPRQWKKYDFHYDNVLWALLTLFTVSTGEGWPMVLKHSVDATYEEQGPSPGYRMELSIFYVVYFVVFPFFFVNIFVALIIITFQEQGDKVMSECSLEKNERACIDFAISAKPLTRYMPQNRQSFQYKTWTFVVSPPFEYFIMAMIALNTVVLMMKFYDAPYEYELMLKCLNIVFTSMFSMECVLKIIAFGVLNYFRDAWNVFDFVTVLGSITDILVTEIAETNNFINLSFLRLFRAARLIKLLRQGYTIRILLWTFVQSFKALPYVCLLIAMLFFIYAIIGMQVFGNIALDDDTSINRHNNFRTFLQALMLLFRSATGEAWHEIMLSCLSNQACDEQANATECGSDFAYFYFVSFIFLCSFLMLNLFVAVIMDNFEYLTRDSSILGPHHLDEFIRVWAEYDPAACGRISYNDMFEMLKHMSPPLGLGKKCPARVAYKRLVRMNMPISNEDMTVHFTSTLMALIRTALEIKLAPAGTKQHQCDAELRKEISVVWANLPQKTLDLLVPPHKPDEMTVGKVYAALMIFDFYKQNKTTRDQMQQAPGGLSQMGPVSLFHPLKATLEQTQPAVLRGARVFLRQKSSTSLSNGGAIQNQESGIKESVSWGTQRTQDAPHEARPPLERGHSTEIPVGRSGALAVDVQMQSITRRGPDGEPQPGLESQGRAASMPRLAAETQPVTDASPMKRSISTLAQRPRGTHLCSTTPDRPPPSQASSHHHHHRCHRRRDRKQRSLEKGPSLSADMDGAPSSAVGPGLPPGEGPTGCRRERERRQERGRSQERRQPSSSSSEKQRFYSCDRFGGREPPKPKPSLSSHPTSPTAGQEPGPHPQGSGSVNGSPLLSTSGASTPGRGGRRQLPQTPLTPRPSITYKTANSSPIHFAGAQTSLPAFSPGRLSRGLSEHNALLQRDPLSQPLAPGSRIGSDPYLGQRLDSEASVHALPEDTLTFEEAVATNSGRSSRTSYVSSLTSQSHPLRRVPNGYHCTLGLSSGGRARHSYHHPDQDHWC

Structure (SMILES) | inhibitory activity at CaV2.2 compared with Vt1.27 (in words; percent inhibition of IBa) [1] | pIC50 (rat α3β2 nAChR) | change of potency at the α3β2 nAChR subtype compared with Vt1.27 (in words) (rat α3β2 nAChR) | Hillslope (rat α3β2 nAChR)
CC[C@H](C)[C@@H]1NC(=O)[C@@H]2CCCN2C(=O)[C@@H]2CSSC[C@H](NC(=O)[C@@H](N)CC(N)=O)C(=O)N[C@@H](CSSC[C@@H](C(N)=O)NC(=O)[C@H](CC(N)=O)NC(=O)[C@H](C)NC(=O)[C@H](CCCNC(=N)N)NC(=O)[C@H](CO)NC(=O)[C@H](Cc3ccc(O)cc3)NC(=O)[C@H](CC(=O)O)NC1=O)C(=O)N[C@@H](CCSC)C(=O)N[C@@H](Cc1ccccc1)C(=O)N[C@@H](Cc1c[nH]cn1)C(=O)N[C@@H]([C@@H](C)O)C(=O)N2 [Vt1.27[F15A]] (H-NCCMFHTCPIDYSRANC-NH2; disulfide 2-8, 3-17) | equipotent to the native peptide | < 5.00 | a decrease in the potency | –
CC[C@H](C)[C@@H]1NC(=O)[C@H](C)NC(=O)[C@@H]2CSSC[C@H](NC(=O)[C@@H](N)CC(N)=O)C(=O)N[C@@H](CSSC[C@@H](C(N)=O)NC(=O)[C@H](CC(N)=O)NC(=O)[C@H](Cc3ccccc3)NC(=O)[C@H](CCCNC(=N)N)NC(=O)[C@H](CO)NC(=O)[C@H](Cc3ccc(O)cc3)NC(=O)[C@H](CC(=O)O)NC1=O)C(=O)N[C@@H](CCSC)C(=O)N[C@@H](Cc1ccccc1)C(=O)N1CCC[C@H]1C(=O)N[C@@H]([C@@H](C)O)C(=O)N2 [Vt1.27[H6P、P9A]] (H-NCCMFPTCAIDYSRFNC-NH2; disulfide 2-8, 3-17) | – | < 5.00 | a significant loss of potency | –
CC[C@H](C)[C@@H]1NC(=O)[C@H](C)NC(=O)[C@@H]2CSSC[C@H](NC(=O)[C@@H](N)CC(N)=O)C(=O)N[C@@H](CSSC[C@@H](C(N)=O)NC(=O)[C@H](CC(N)=O)NC(=O)[C@H](Cc3ccccc3)NC(=O)[C@H](CCCNC(=N)N)NC(=O)[C@H](CO)NC(=O)[C@H](Cc3ccc(O)cc3)NC(=O)[C@H](CC(=O)O)NC1=O)C(=O)N[C@@H](CCSC)C(=O)N[C@@H](Cc1ccccc1)C(=O)N[C@@H](Cc1c[nH]cn1)C(=O)N[C@@H]([C@@H](C)O)C(=O)N2 [Vt1.27[P9A]] (H-NCCMFHTCAIDYSRFNC-NH2; disulfide 2-8, 3-17) | decrease in inhibitory activity | 5.03 | a sharp decrease in activity | -0.763
CC[C@H](C)[C@@H]1NC(=O)[C@@H]2CCCN2C(=O)[C@@H]2CSSC[C@H](NC(=O)[C@@H](N)CC(N)=O)C(=O)N[C@@H](CSSC[C@@H](C(N)=O)NC(=O)[C@H](CC(N)=O)NC(=O)[C@H](Cc3ccccc3)NC(=O)[C@H](C)NC(=O)[C@H](CO)NC(=O)[C@H](Cc3ccc(O)cc3)NC(=O)[C@H](CC(=O)O)NC1=O)C(=O)N[C@@H](CCSC)C(=O)N[C@@H](Cc1ccccc1)C(=O)N[C@@H](Cc1c[nH]cn1)C(=O)N[C@@H]([C@@H](C)O)C(=O)N2 [Vt1.27[R14A]] (H-NCCMFHTCPIDYSAFNC-NH2; disulfide 2-8, 3-17) | – | 5.54 | a decrease in the potency | -0.871
CC[C@H](C)[C@@H]1NC(=O)[C@@H]2CCCN2C(=O)[C@@H]2CSSC[C@H](NC(=O)[C@@H](N)CC(N)=O)C(=O)N[C@@H](CSSC[C@@H](C(N)=O)NC(=O)[C@H](CC(N)=O)NC(=O)[C@H](Cc3ccccc3)NC(=O)[C@H](CCCNC(=N)N)NC(=O)[C@H](CO)NC(=O)[C@H](C)NC(=O)[C@H](CC(=O)O)NC1=O)C(=O)N[C@@H](CCSC)C(=O)N[C@@H](Cc1ccccc1)C(=O)N[C@@H](Cc1c[nH]cn1)C(=O)N[C@@H]([C@@H](C)O)C(=O)N2 [Vt1.27[Y12A]] (H-NCCMFHTCPIDASRFNC-NH2; disulfide 2-8, 3-17) | – | 5.59 | a decrease in the potency | -1.577
